Data taken from patent US9718796B2, “Substituted benzoazepines as toll-like receptor modulators” (VENTIRX PHARMACEUTICALS, INC., priority 2011, dated 2017).
Read-outs that look alike come from different tables or passages of the source.

Molecular target: T1, hTLR8 (Homo sapiens, UniProt Q9NR97)
T1 construct: host or cells: HEK293 cells stably transfected with hTLR8
T1 sequence (Q9NR97 27-1041): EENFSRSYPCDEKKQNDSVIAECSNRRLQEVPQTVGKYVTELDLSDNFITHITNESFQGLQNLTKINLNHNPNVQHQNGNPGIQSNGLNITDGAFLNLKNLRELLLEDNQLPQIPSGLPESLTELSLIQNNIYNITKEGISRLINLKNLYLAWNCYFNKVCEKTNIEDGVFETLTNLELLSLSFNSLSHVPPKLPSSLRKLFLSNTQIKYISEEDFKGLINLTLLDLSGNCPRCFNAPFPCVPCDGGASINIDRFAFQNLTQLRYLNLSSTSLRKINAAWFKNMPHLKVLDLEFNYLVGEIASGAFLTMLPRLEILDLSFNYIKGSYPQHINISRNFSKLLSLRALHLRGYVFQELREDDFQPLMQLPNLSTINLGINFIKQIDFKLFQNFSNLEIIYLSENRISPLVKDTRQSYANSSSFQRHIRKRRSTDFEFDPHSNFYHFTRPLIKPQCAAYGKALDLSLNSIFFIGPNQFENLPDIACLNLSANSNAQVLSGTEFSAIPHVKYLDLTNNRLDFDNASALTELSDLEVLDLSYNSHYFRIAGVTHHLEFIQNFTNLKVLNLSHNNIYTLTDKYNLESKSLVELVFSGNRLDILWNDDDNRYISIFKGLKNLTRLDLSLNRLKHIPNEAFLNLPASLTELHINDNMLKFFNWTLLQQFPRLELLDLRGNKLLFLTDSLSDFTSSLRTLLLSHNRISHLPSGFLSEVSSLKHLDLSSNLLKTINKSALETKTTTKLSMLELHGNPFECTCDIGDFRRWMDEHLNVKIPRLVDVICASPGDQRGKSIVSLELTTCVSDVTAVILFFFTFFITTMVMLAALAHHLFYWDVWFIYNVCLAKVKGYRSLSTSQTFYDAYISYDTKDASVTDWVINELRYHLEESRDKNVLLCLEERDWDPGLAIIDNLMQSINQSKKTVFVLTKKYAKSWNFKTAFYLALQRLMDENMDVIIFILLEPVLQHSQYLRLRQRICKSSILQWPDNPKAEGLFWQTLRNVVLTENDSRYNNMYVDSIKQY
Experiment: HEK-293 hTLR8 transfectant antagonist assay (NF-κB driven SEAP reporter)
Format: cell-based
Conditions: hTLR8 reporter cells
Protocol: The HEK-293 hTLR transfectant assay employs HEK293 cells stably transfected with various hTLRs and transiently co-transfected with a plasmid containing an NF-κB driven secreted embryonic alkaline phosphate (SEAP) reporter gene. Stimulation of TLRs activates their downstream signaling pathways and induces nuclear translocation of the transcription factor NF-κB. Reporter gene activity is then measured using a spectrophotometric assay. To measure antagonist activity, human embryonic kidney (HEK) cells (e.g., 293XL-hTLR8 cells available from InvivoGen, San Diego, Calif.) are prepared according to supplier's instructions and incubated with various concentrations of test compound overnight. The amount of induced […] is measured by reading the absorbance at 650 nm. The compounds of the invention have an MC50 of 25 μM or less, wherein MC50 is defined as the concentration at which 50% of maximum induction is seen. For the TLR8 antagonist assays, cells are transiently transfected with the reporter gene on Day 1 per the supplier's instructions. Antagonist compounds are added to the cultures on Day 2 followed by addition of a TLR8 agonist approximately 2 hours later. Cultures are incubated overnight and SEAP activity is measured on Day 3. In a typical assay, 50,000 HEK239 hTLR8 cells are seeded per culture well and transiently transfected with the SEAP reporter gene. Antagonists are added to cultures in culture medium and […] DMSO over a concentration range of 0.1 nanomolar to 10 micromolar. TLR8 agonists are added to cultures 2 hours later at a fixed concentration (e.g., 1 micromolar or 10 micromolar of Compound A) and cultures are then incubated for 16-24 hrs at 37° C. in a humidified CO incubator. Antagonists are also evaluated for activity in the absence of agonist. TLR8 antagonist activity was measured in a hTLR8 assay format, measuring IC50 values. […] IC50s were then calculated.

[1] = IC50, nM, vs. 3M002 10 μM, agonist 3M002 10 μM
[2] = IC50, nM, vs. VTX-378 1 μM, TLR8 agonist VTX-378 (Compound A) 1 μM
[3] = TLR8 agonist VTX-378 (Compound A) 0.5 μM, read-out: IC50, nM, vs. VTX-378 0.5 μM
[4] = IC50, nM, vs. 3M002 1 μM, agonist 3M002 1 μM
[5] = IC50, nM, vs. VTX-378 10 μM, TLR8 agonist VTX-378 (Compound A) 10 μM

| Structure (SMILES) | IC50 [1] [nM] | IC50 [2] [nM] | IC50 [3] [nM] | IC50 [4] [nM] | IC50 [5] [nM] |
| --- | --- | --- | --- | --- | --- |
| CCOC(=O)C1=Cc2cc(-c3ccc(C(=O)OCC)cc3)ccc2N=C(N)C1 [Compound 3101, Ethyl 2-amino-7-[4-(ethoxycarbonyl)phenyl]-3H-1-benzazepine-4-carboxylate] | ≥ 10000 | ≥ 10000 | 1000 to 10000 |  |  |
| CCOC(=O)C1=Cc2cc(-c3ccc(C)cc3)ccc2N=C(N)C1 [Compound 3272, Ethyl 2-amino-7-(4-methylphenyl)-3H-1-benzazepine-4-carboxylate] | 1000 to 10000 | 1000 to 10000 | 1000 to 10000 | < 1000 |  |
| CCOC(=O)C1=Cc2cc(Oc3cccc(C(F)(F)F)c3)ccc2N=C(N)C1 [Compound 3046] | 1000 to 10000 | 1000 to 10000 |  |  | ≥ 10000 |
| CCOC(=O)C1=Cc2cc(-c3ccccc3OC)ccc2N=C(N)C1 [Compound 3264, Ethyl 2-amino-7-(2-methoxyphenyl)-3H-1-benzazepine-4-carboxylate] | < 1000 | < 1000 | < 1000 |  |  |
| CCOC(=O)C1=Cc2cc(-c3ccccc3Cl)ccc2N=C(N)C1 [Compound 3127, Ethyl 2-amino-7-(2-chlorophenyl)-3H-1-benzazepine-4-carboxylate] | 1000 to 10000 | < 1000 | < 1000 | < 1000 |  |
| CCOC(=O)C1=Cc2cc(-c3cccc(C(=O)N(C)C)c3)ccc2N=C(N)C1 [Compound 3058, Ethyl 2-amino-7-[3-(dimethylcarbamoyl)phenyl]-3H-1-benzazepine-4-carboxylate] |  | 1000 to 10000 |  |  | ≥ 10000 |
| CCOC(=O)C1=Cc2cc(-c3ccc(OC)cc3)ccc2N=C(N)C1 [Compound 3098, Ethyl 2-amino-7-(4-methoxyphenyl)-3H-1-benzazepine-4-carboxylate] | 1000 to 10000 | ≥ 10000 | 1000 to 10000 |  |  |
| CCOC(=O)C1=Cc2cc(-c3ccc(C(=O)N4CCCC4)cc3)ccc2N=C(NOC)C1 [Compound 2930] |  | ≥ 10000 |  |  | ≥ 10000 |
| CCCN(CC(N)=O)C(=O)C1=Cc2cc(-c3ccc(NC(=O)OCC)cc3Cl)ccc2N=C(N)C1 [Compound 3336, Ethyl (4-{2-amino-4-[(2-amino-2-oxoethyl)(propyl)carbamoyl)-3H-1-benzazepin-7-yl}-3-chlorophenyl)carbamate] | 1000 to 10000 | 1000 to 10000 | < 1000 | < 1000 |  |
| CCOC(=O)C1=Cc2cc(Oc3ccc(C(=O)N(C)C)cc3)ccc2N=C(N)C1 [Compound 3093] | ≥ 10000 | ≥ 10000 |  |  | ≥ 10000 |
| CCOC(=O)C1=Cc2cc(C3=CCN(C(=O)OCC)CC3)ccc2N=C(N)C1 [Compound 3202] |  | < 1000 |  |  | < 1000 |
| CCOC(=O)C1=Cc2cc(Nc3ccccc3)ccc2N=C(N)C1 [Compound 3097] | 1000 to 10000 | 1000 to 10000 | < 1000 |  |  |
| CCOC(=O)C1=Cc2cc(-c3ccc(N4CCCC4=O)cc3)ccc2N=C(N)C1 [Compound 3190, Ethyl 2-amino-7-[4-(2-oxopyrrolidin-1-yl)phenyl]-3H-1-benzazepine-4-carboxylate] |  | 1000 to 10000 | < 1000 |  |  |
| CCOC(=O)C1=Cc2cc(-c3ccccc3C(F)(F)F)ccc2N=C(N)C1 [Compound 3126, Ethyl 2-amino-7-[2-(trifluoromethyl)phenyl]-3H-1-benzazepine-4-carboxylate] | 1000 to 10000 | 1000 to 10000 | < 1000 | < 1000 |  |
| CCOC(=O)Nc1ccc(-c2ccc3c(c2)C=C(C(=O)OCC)CC(N)=N3)cc1 [Compound 3199, Ethyl 2-amino-7-{4-[(ethoxycarbonyl)amino]phenyl}-3H-1-benzazepine-4-carboxylate] |  | < 1000 | < 1000 |  |  |
| CCOC(=O)C1=Cc2cc(-c3ccccc3C(C)C)ccc2N=C(N)C1 [Compound 3141, Ethyl 2-amino-7-(2-isopropylphenyl)-3H-1-benzazepine-4-carboxylate] |  | 1000 to 10000 | < 1000 |  |  |
| CCOC(=O)C1=Cc2cc(-c3ccc(N4CCOC4=O)cc3)ccc2N=C(N)C1 [Compound 3300, Ethyl 2-amino-7-[4-(2-oxo-1,3-oxazolidin-3-yl)phenyl]-3H-1-benzazepine-4-carboxylate] | < 1000 | < 1000 | < 1000 | < 1000 |  |
| CCOC(=O)C1=Cc2cc(-c3ccc(S(=O)(=O)N(C)C)cc3)ccc2N=C(N)C1 [Compound 3055, Ethyl 2-amino-7-{4-[(dimethylamino)sulfonyl]phenyl}-3H-1-benzazepine-4-carboxylate] |  | 1000 to 10000 |  |  | ≥ 10000 |
| CCOC(=O)C1=Cc2cc(-c3cccc(Cl)c3Cl)ccc2N=C(N)C1 [Compound 3155, Ethyl 2-amino-7-(2,3-dichlorophenyl)-3H-1-benzazepine-4-carboxylate] |  | ≥ 10000 | 1000 to 10000 |  |  |
| CCCN(CC(N)=O)C(=O)C1=Cc2cc(-c3ccc(C(=O)N4CCCC4)cc3Cl)ccc2N=C(N)C1 [Compound 3342, 2-Amino-N-(2-amino-2-oxoethyl)-7-[2-chloro-4-(pyrrolidin-1-ylcarbonyl)phenyl]-N-propyl-3H-1-benzazepine-4-carboxamide] | < 1000 | < 1000 | < 1000 |  |  |
| CCOC(=O)C1=Cc2cc(C3=CCN(C(=O)N4CCCC4)CC3)ccc2N=C(N)C1 [Compound 3254] |  | 1000 to 10000 | 1000 to 10000 |  |  |
| CCCN(CC(N)=O)C(=O)C1=Cc2cc(-c3ccc(C(=O)N4CCCC4)cc3C)ccc2N=C(N)C1 [Compound 3343, 2-Amino-N-(2-amino-2-oxoethyl)-7-[2-methyl-4-(pyrrolidin-1-ylcarbonyl)phenyl]-N-propyl-3H-1-benzazepine-4-carboxamide] |  | < 1000 | < 1000 |  |  |
| CCOC(=O)C1=Cc2cc(-c3ccc(NC(=O)N(C)C)cc3)ccc2N=C(N)C1 [Compound 3290, Ethyl 2-amino-7-{4-[(dimethylcarbamoyl)amino]phenyl}-3H-1-benzazepine-4-carboxylate] | 1000 to 10000 | 1000 to 10000 | < 1000 | < 1000 |  |
| CCOC(=O)C1=Cc2cc(-c3cccc(C(F)(F)F)c3)ccc2N=C(N)C1 [Compound 3059, Ethyl 2-amino-7-[3-(trifluoromethyl)phenyl]-3H-1-benzazepine-4-carboxylate] | ≥ 10000 | 1000 to 10000 |  |  | ≥ 10000 |
| CCOC(=O)C1=Cc2cc(-c3c(C)cccc3C)ccc2N=C(N)C1 [Compound 3162] |  | 1000 to 10000 | 1000 to 10000 |  |  |
| CCOC(=O)C1=Cc2cc(Oc3ccccc3)ccc2N=C(N)C1 [Compound 2946] |  | 1000 to 10000 |  |  | ≥ 10000 |
| CCOC(=O)C1=Cc2cc(-c3ccc(C(=O)N4CCCC4)cc3C)ccc2N=C(N)C1 [Compound 3119, Ethyl 2-amino-7-[2-methyl-4-(pyrrolidin-1-ylcarbonyl)phenyl]-3H-1-benzazepine-4-carboxylate] | < 1000 | < 1000 | < 1000 |  |  |
